Values belong to the molecule of their own block, whether it stands above or below them.
Experiments:
[1] = AUC in Sprague-Dawley rat at 1 mg/kg,iv measured upto 24 hrs by LC-MS/MS analysis; format: ADME, organism-based; design: dose 1 mg/kg, time < 24 hrs, route iv; settings: in vivo
NCI-H1299 = assay: Antiproliferative activity against human NCI-H1299 cells harboring KRAS wild type assessed as inhibition of cell growth incubated for 5 days by crystal violet staining analysis; format: functional, cell-based; settings: NCI-H1299, 120 h
ASPC1 [2] = assay: Induction of apoptosis in human ASPC1 cells harboring […] assessed as late apoptotic cells at 50 uM incubated for 24 hrs by annexin V and propidium iodide staining based flow cytometry analysis (reference value: 6.96%); format: functional
AGS [3] = assay: Antiproliferative activity against human AGS cells harboring […] assessed as inhibition of cell growth incubated for 5 days by crystal violet staining analysis; format: functional, cell-based; settings: Homo sapiens, AGS, 120 h
[4] = Toxicity in mouse xenografted with human ASPC1 cells assessed as change in kidney morphology at 10 mg/kg,ip administrated twice daily for 20 consecutive days by Hematoxylin-eosin staining based microscopic analysis; format: organism-based; settings: in vivo
[5] = Metabolic stability in monkey liver microsomes assessed as half life at 150 uM measured after 60 mins in presence of NADPH by LC-MS/MS analysis; format: ADME, Macaca mulatta, Microsome; settings: rhesus monkey
[6] = Toxicity in mouse xenografted with human ASPC1 cells assessed as serum creatinine level at 20 mg/kg,ip administrated twice daily for 20 consecutive days (reference value: 28.2 +/- 2.1 umol/L); format: organism-based; settings: in vivo
[7] = Toxicity in mouse xenografted with human ASPC1 cells assessed as change in body weight at 20 mg/kg,ip administrated twice daily for 20 consecutive days; format: organism-based; settings: in vivo
[8] = Toxicity in mouse xenografted with human ASPC1 cells assessed as serum creatinine level at 10 mg/kg,ip administrated twice daily for 20 consecutive days (reference value: 28.2 +/- 2.1 umol/L); format: organism-based; settings: in vivo
AGS [9] = assay: Induction of apoptosis in human AGS cells harboring […] assessed as early apoptotic cells at 25 uM incubated for 24 hrs by annexin V and propidium iodide staining based flow cytometry analysis (reference value: 4.05%); format: functional
[10] = Metabolic stability in dog liver microsomes assessed as intrinsic clearance at 150 uM measured after 60 mins in presence of NADPH by LC-MS/MS analysis; format: ADME, Canis lupus familiaris, Microsome; settings: read-out: CLH
AGS [11] = assay: Induction of apoptosis in human AGS cells harboring […] assessed as late apoptotic cells at 50 uM incubated for 24 hrs by annexin V and propidium iodide staining based flow cytometry analysis (reference value: 7.74%); format: functional
[12] = Toxicity in mouse xenografted with human ASPC1 cells assessed as change in body weight at 10 mg/kg,ip administrated twice daily for 20 consecutive days; format: organism-based; settings: in vivo
[13] = Inhibition of recombinant human His6-tagged KRAS4B G12D mutant incubated for 1 hr by HTRF assay
[14] = Metabolic stability in dog liver microsomes assessed as half life at 150 uM measured after 60 mins in presence of NADPH by LC-MS/MS analysis; format: ADME, Canis lupus familiaris, Microsome
[15] = Metabolic stability in rat liver microsomes assessed as half life at 150 uM measured after 60 mins in presence of NADPH by LC-MS/MS analysis; format: ADME, Microsome
[16] = Toxicity in mouse xenografted with human ASPC1 cells assessed as change in kidney morphology at 20 mg/kg,ip administrated twice daily for 20 consecutive days by Hematoxylin-eosin staining based microscopic analysis; format: organism-based; settings: in vivo
[17] = Clearance in Sprague-Dawley rat at 1 mg/kg,iv measured upto 24 hrs by LC-MS/MS analysis; format: ADME, organism-based; settings: in vivo
[18] = Toxicity in mouse xenografted with human ASPC1 cells assessed as change in lung morphology at 20 mg/kg,ip administrated twice daily for 20 consecutive days by Hematoxylin-eosin staining based microscopic analysis; format: organism-based; settings: in vivo
ASPC1 [19] = assay: Induction of apoptosis in human ASPC1 cells harboring […] assessed as early apoptotic cells at 25 uM incubated for 24 hrs by annexin V and propidium iodide staining based flow cytometry analysis (reference value: 5.22%); format: functional
GTPase KRas = GTPase KRas (Homo sapiens, UniProt P01116); assay: Inhibition of recombinant human GTP-bound KRAS wild type (1 to 169 residues) incubated for 1 hr by HTRF assay
[20] = Metabolic stability in rat liver microsomes assessed as intrinsic clearance at 150 uM measured after 60 mins in presence of NADPH by LC-MS/MS analysis; format: ADME, Microsome; settings: read-out: CLH
AGS [21] = assay: Induction of apoptosis in human AGS cells harboring […] assessed as late apoptotic cells at 25 uM incubated for 24 hrs by annexin V and propidium iodide staining based flow cytometry analysis (reference value: 7.74%); format: functional
[22] = Toxicity in mouse xenografted with human ASPC1 cells assessed as change in liver morphology at 20 mg/kg,ip administrated twice daily for 20 consecutive days by Hematoxylin-eosin staining based microscopic analysis; format: organism-based; settings: in vivo
ASPC1 [23] = assay: Antiproliferative activity against human ASPC1 cells harboring […] assessed as inhibition of cell growth incubated for 5 days by crystal violet staining analysis; format: functional, cell-based; settings: Homo sapiens, ASPC1, 120 h
[24] = Toxicity in mouse xenografted with human ASPC1 cells assessed as serum blood urea nitrogen level at 20 mg/kg,ip administrated twice daily for 20 consecutive days (reference value: 16.3 +/- 1.6 mmol/L); format: organism-based; settings: in vivo
[25] = Toxicity in mouse xenografted with human ASPC1 cells assessed as change in spleen morphology at 10 mg/kg,ip administrated twice daily for 20 consecutive days by Hematoxylin-eosin staining based microscopic analysis; format: organism-based; settings: in vivo
ASPC1 [26] = assay: Antitumor activity against human ASPC1 cells xenografted in mouse assessed as inhibition of tumor growth at 20 mg/kg,ip administrated twice daily for 20 consecutive days relative to control; format: functional; settings: read-out: TGI
[27] = Toxicity in mouse xenografted with human ASPC1 cells assessed as serum ratio of AST/ALT at 20 mg/kg,ip administrated twice daily for 20 consecutive days (reference value: 6.5 +/- 1.7); format: organism-based; settings: in vivo
A549 = assay: Antiproliferative activity against human A549 cells harboring […] assessed as inhibition of cell growth incubated for 5 days by crystal violet staining analysis; format: functional, cell-based; settings: Homo sapiens, A549, 120 h
[28] = AUC in Sprague-Dawley rat at 3 mg/kg,po measured upto 24 hrs by LC-MS/MS analysis; format: ADME, organism-based; design: time < 24 hrs, dose 3 mg/kg, route po; settings: in vivo
[29] = Toxicity in mouse xenografted with human ASPC1 cells assessed as serum blood urea nitrogen level at 10 mg/kg,ip administrated twice daily for 20 consecutive days (reference value: 16.3 +/- 1.6 mmol/L); format: organism-based; settings: in vivo
[30] = Toxicity in mouse xenografted with human ASPC1 cells assessed as change in lung morphology at 10 mg/kg,ip administrated twice daily for 20 consecutive days by Hematoxylin-eosin staining based microscopic analysis; format: organism-based; settings: in vivo
[31] = Toxicity in mouse xenografted with human ASPC1 cells assessed as change in liver morphology at 10 mg/kg,ip administrated twice daily for 20 consecutive days by Hematoxylin-eosin staining based microscopic analysis; format: organism-based; settings: in vivo
[32] = Toxicity in mouse xenografted with human ASPC1 cells assessed as change in heart morphology at 10 mg/kg,ip administrated twice daily for 20 consecutive days by Hematoxylin-eosin staining based microscopic analysis; format: organism-based; settings: in vivo
ASPC1 [33] = assay: Antitumor activity against human ASPC1 cells xenografted in mouse assessed as inhibition of tumor growth at 10 mg/kg,ip administrated twice daily for 20 consecutive days relative to control; format: functional; settings: read-out: TGI
[34] = Half life in Sprague-Dawley rat at 1 mg/kg,iv measured upto 24 hrs by LC-MS/MS analysis; format: ADME, organism-based; settings: in vivo
[35] = Toxicity in mouse xenografted with human ASPC1 cells assessed as change in heart morphology at 20 mg/kg,ip administrated twice daily for 20 consecutive days by Hematoxylin-eosin staining based microscopic analysis; format: organism-based; settings: in vivo
ASPC1 [36] = assay: Induction of apoptosis in human ASPC1 cells harboring […] assessed as late apoptotic cells at 25 uM incubated for 24 hrs by annexin V and propidium iodide staining based flow cytometry analysis (reference value: 6.96%); format: functional
[37] = Metabolic stability in monkey liver microsomes assessed as intrinsic clearance at 150 uM measured after 60 mins in presence of NADPH by LC-MS/MS analysis; format: ADME, Macaca mulatta, Microsome; settings: rhesus monkey, read-out: CLH
ASPC1 [38] = assay: Induction of apoptosis in human ASPC1 cells harboring […] assessed as early apoptotic cells at 50 uM incubated for 24 hrs by annexin V and propidium iodide staining based flow cytometry analysis (reference value: 5.22%); format: functional
[39] = Toxicity in mouse xenografted with human ASPC1 cells assessed as serum ratio of AST/ALT at 10 mg/kg,ip administrated twice daily for 20 consecutive days (reference value: 6.5 +/- 1.7); format: organism-based; settings: in vivo
[40] = Toxicity in mouse xenografted with human ASPC1 cells assessed as change in spleen morphology at 20 mg/kg,ip administrated twice daily for 20 consecutive days by Hematoxylin-eosin staining based microscopic analysis; format: organism-based; settings: in vivo
[41] = Half life in Sprague-Dawley rat at 3 mg/kg,po measured upto 24 hrs by LC-MS/MS analysis; format: ADME, organism-based; settings: in vivo
AGS [42] = assay: Induction of apoptosis in human AGS cells harboring […] assessed as early apoptotic cells at 50 uM incubated for 24 hrs by annexin V and propidium iodide staining based flow cytometry analysis (reference value: 4.05%); format: functional

AUC at 24 h [1]: 102 ng·h/mL | IC50 (NCI-H1299): 1850 nM | IC50 (AGS [3]): 0.9 nM | half-life at 150 µM [5]: 30.5 min | microsomal CLint at 150 µM [10]: 16.2 µL/min/mg | IC50 [13]: 1.19 nM | half-life at 150 µM [14]: 85.6 min | half-life at 150 µM [15]: 92.4 min | clearance [17]: 168 mL/min/kg | IC50 (GTPase KRas): 16.7 nM | microsomal CLint at 150 µM [20]: 15 µL/min/mg | IC50 (ASPC1 [23]): 1.6 nM | IC50 (A549): 1190 nM | AUC at 24 h [28]: 2.89 ng·h/mL | half-life [34]: 660 min | microsomal CLint at 150 µM [37]: 45.4 µL/min/mg | half-life [41]: 22.9 min
Structure (SMILES): [2H]C([2H])(Oc1nc(N2C[C@H]3CC[C@@H](C2)N3)c2cnc(-c3cc(N)cc4ccc(F)c(C#C)c34)c(F)c2n1)C12CCCN1CC(=C(F)F)C2 (stereo partly drawn)
Activity (ASPC1 [2]): 11.8% | Activity [4]: Non-Toxic | Activity [6]: 23.5 µmol/L | Activity [7]: Non-Toxic | Activity [8]: 29.7 µmol/L | Activity (AGS [9]): 8.84% | Activity (AGS [11]): 13.7% | Activity [12]: Non-Toxic | Activity [16]: Non-Toxic | Activity [18]: Non-Toxic | Activity (ASPC1 [19]): 9.56% | Activity (AGS [21]): 11% | Activity [22]: Non-Toxic | Activity [24]: 16.7 mmol/L | Activity [25]: Non-Toxic | inhibition in vivo at 20 mg/kg (ASPC1 [26]): 71.3% | Ratio [27]: 4.5 | Activity [29]: 19.2 mmol/L | Activity [30]: Non-Toxic | Activity [31]: Non-Toxic | Activity [32]: Non-Toxic | inhibition in vivo at 10 mg/kg (ASPC1 [33]): 53.3% | Activity [35]: Non-Toxic | Activity (ASPC1 [36]): 10.8% | Activity (ASPC1 [38]): 12.4% | Ratio [39]: 4.5 | Activity [40]: Non-Toxic | Activity (AGS [42]): 9.08%

AUC at 24 h [1]: 37.2 ng·h/mL | IC50 (NCI-H1299): 1940 nM | IC50 (AGS [3]): 0.3 nM | half-life at 150 µM [5]: 24.3 min | microsomal CLint at 150 µM [10]: 51.8 µL/min/mg | IC50 [13]: 0.48 nM | half-life at 150 µM [14]: 26.8 min | half-life at 150 µM [15]: 83.5 min | clearance [17]: 490 mL/min/kg | IC50 (GTPase KRas): 10.2 nM | microsomal CLint at 150 µM [20]: 16.6 µL/min/mg | IC50 (ASPC1 [23]): 0.6 nM | IC50 (A549): 332 nM | half-life [34]: 18.4 min | microsomal CLint at 150 µM [37]: 57 µL/min/mg
Structure (SMILES): [2H]C([2H])(Oc1nc(N2C[C@H]3CC[C@@H](C2)N3)c2cnc(-c3cc(O)cc4ccc(F)c(C#C)c34)c(F)c2n1)C12CCCN1CC(=C(F)F)C2 (stereo partly drawn)
Activity (ASPC1 [2]): 18.7% | Activity [4]: Non-Toxic | Activity [6]: 22.2 µmol/L | Activity [7]: Non-Toxic | Activity [8]: 25.9 µmol/L | Activity (AGS [9]): 11.4% | Activity (AGS [11]): 14% | Activity [12]: Non-Toxic | Activity [16]: Non-Toxic | Activity [18]: Non-Toxic | Activity (ASPC1 [19]): 9.17% | Activity (AGS [21]): 9.76% | Activity [22]: Non-Toxic | Activity [24]: 14.1 mmol/L | Activity [25]: Non-Toxic | inhibition in vivo at 20 mg/kg (ASPC1 [26]): 73.4% | Ratio [27]: 5.7 | Activity [29]: 13.5 mmol/L | Activity [30]: Non-Toxic | Activity [31]: Non-Toxic | Activity [32]: Non-Toxic | inhibition in vivo at 10 mg/kg (ASPC1 [33]): 55.3% | Activity [35]: Non-Toxic | Activity (ASPC1 [36]): 10% | Activity (ASPC1 [38]): 11.5% | Ratio [39]: 5 | Activity [40]: Non-Toxic | Activity (AGS [42]): 13.1%
